The subject of one data set is Helminthosporium maydis. The data set can be described thus: Southern corn leaf blight control on sprayed corn seedlings (Example 83). Type of data set: in vivo. The settings on record: Bipolaris maydis, 192 h, 100 ppm spray, day before inoculation. An outline of the steps:
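Compounds in 6% acetone at 100 ppm in water with 250 ppm TREM 014 surfactant, sprayed to run-off on corn seedlings; next day inoculated with spore suspension. 24 h at saturated humidity and 20°, then 7 days in growth room before disease rating; phytotoxicity scored as growth reduction.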

A further data set deals with Monilinia fructicola. Kind of data set: Stone fruit brown rot control on dipped canned peach halves (Example 86). To be noted: 120 h, 100 ppm dip, percent growth inhibition of colonies after five days. The essentials:
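Canned peach halves were dipped 3 min in a 100 ppm compound suspension (5% acetone, 700 ppm TREM 014 surfactant in water) and air-dried. Each was inoculated with two Monilinia fructicola mycelium pieces and incubated 5 days in sterile containers. Colony radii were measured, and percent control was expressed as growth inhibition versus untreated peaches.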

The subject of data set [1] is Pythium aphanadermatum. Kind of data set: Pythium control on cotton, seed coating (Example 91). To be noted: 168 h; for pest or weed control at 2 g/kg seed: 2 gm/kg seed. Type of data set: in vivo. The essentials:
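Cotton seeds coated with formulated compound at 2 gm/kg seed, air dried, and planted in soil amended with Pythium aphanadermatum, sand and corn meal. Held 1 week at room temperature before disease rating.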

A further data set concerns Venturia inaequalis. Kind of data set: Apple scab control on sprayed apple seedlings (Example 82). To be noted: Venturia inaequalis, 100 ppm spray, day before inoculation. Type of data set: in vivo.
The next data set concerns Cercospora arachidicola. Kind of data set: Peanut early leafspot control on sprayed peanut seedlings (Example 84). The class given is in vivo. The settings on record: Mycosphaerella arachidis, 360 h, 100 ppm spray, day before inoculation; read-out: % Control Peanut Easly Leafspot.
In another data set the test system is 5 Phytophthora species. The class given is cell-based. The settings on record: 200.0 ppm in V-8 agar, 22° C., 6 days.
A further data set relates to Erysiphe cichoracearum. The data set can be described thus: Cucumber powdery mildew control on sprayed cucumber seedlings (Example 80). Type of data set: in vivo. The settings on record: Golovinomyces cichoracearum, 168 h, 100 ppm spray, day before inoculation.
A further data set deals with Erysiphe graminis. The data set can be described thus: Barley powdery mildew control on sprayed barley seedlings (Example 81). The settings on record: Blumeria graminis, 168 h; 100 ppm spray, day before inoculation. Type of data set: in vivo. The essentials:
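Compounds at 100 ppm in water with 6% acetone and 250 ppm surfactant were sprayed to run-off on barley seedlings. Plants were inoculated with Erysiphe graminis spores the next day. Disease was rated after 7 days in a growth room.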

In the next data set the test system is Phytophthora infestans. The data set can be described thus: whole plant or invertebrate. Type of data set: in vivo. To be noted: Phytophthora infestans, in Solanum lycopersicum, 168 h, read-out: % Control of Tomato Late Blight, 100 ppm spray, day before inoculation.
In the next data set the test system is Pyricularia oryzae. The data set can be described thus: whole plant or invertebrate. Type of data set: in vivo. The settings on record: Pyricularia oryzae, 168 h, read-out: % Control of Rice Blast, 100 ppm spray, day before inoculation.
Data set [2] relates to Puccinia recondita var. tritici. Kind of data set: Wheat leaf rust control on sprayed wheat seedlings (Example 79). To be noted: Puccinia recondita, 168 h; 100 ppm spray, day before inoculation. The class given is in vivo. An outline of the steps:
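Wheat seedlings were sprayed to run-off with 100 ppm compound suspended in water with 6% acetone and 250 ppm TREM 014 surfactant. Next day they were inoculated with Puccinia recondita var. tritici spores and held 24 h at saturated humidity, 20°. Rust pustules were rated after a further 7 days in a growth room.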

The next data set relates to bean seedlings. Kind of data set: Phytotoxicity on bean seedlings (Example 85). Type of data set: in vivo. More on the design: key: G = growth reduction; H = hormonal effects. The settings on record: 80 ppm spray.
The next data set concerns Rhizoctonia solani. Kind of data set: Rice sheath blight control on sprayed rice seedlings (Example 87). The settings on record: Rhizoctonia solani, 168 h, 100 ppm spray, day before inoculation. The class given is in vivo. The essentials: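 Rice seedlings were sprayed to run-off with 100 ppm compound suspended in water with 6% acetone and 250 ppm TREM 014 surfactant. They were inoculated next day with bran plus R. solani mycelium. Sheath blight was rated after 7 days in a growth room.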

The test system of another data set is cucumber seedlings. Kind of data set: Phytotoxicity on cucumber seedlings (Example 80). Type of data set: in vivo. More on the design: key: G = growth reduction; H = hormonal effects. To be noted: 100 ppm spray. An outline of the steps: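 Cucumber seedlings sprayed to run-off with 100 ppm compound suspension (6% acetone, 250 ppm TREM 014 surfactant), inoculated next day with Erysiphe cichoracearum spores, then held 7 days in a growth room before disease rating. Phytotoxicity scored as growth reduction or hormonal effects.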

The subject of data set [3] is Pythium aphanadermatum. Kind of data set: Pythium control on corn, seed coating (Example 92). Type of data set: in vivo. To be noted: 504 h, 2 gm/kg seed. The essentials: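 Formulated compounds were coated onto corn seeds at 2 gm/kg seed, air-dried and sown in soil infested with Pythium aphanadermatum at a rate lethal to most untreated seeds. Seeds were held 2 weeks at 49° F, then 1 week at 70° F, before disease rating.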

Another data set relates to corn seedlings. The data set can be described thus: Phytotoxicity on corn seedlings (Example 83). Type of data set: in vivo. On the set-up: key: G = growth reduction; H = hormonal effects. To be noted: 100 ppm spray. As for the experimental part: The compounds of the previous examples were again dissolved in acetone in an amount equal to 6% of the final volume and then suspended at a concentration of 100 ppm in purified water containing 250 ppm of the surfactant TREM 014 (polyhydric alcohol esters). These suspensions were sprayed to the point of run-off on corn seedlings. The following day, the plants were inoculated with a spore suspension of Helminthosporium maydis, causal agent of southern corn leaf blight, and incubated in a saturated humidity chamber at 20° for 24 hours and then in a growth room for an additional 7 days, when disease ratings were made. Treated plants from successful treatments had few or no lesions while the untreated plants had numerous lesions on each leaf. Phytotoxicity expressed as growth reduction was observed on some of the plants in association with disease control.

Turning to `C[Si](Cn1cncn1)(c1ccc(Cl)cc1)c1ccc(Cl)cc1` [bis(4-Chlorophenyl)methyl(1H,-1,2,4-triazol-1-ylmethyl)silane], the pest or weed control at 100 ppm turned out to be 80% with Helminthosporium maydis; 100% in the data set with Venturia inaequalis; 100% with Cercospora arachidicola; 100% in the data set on Erysiphe cichoracearum; 100% in the data set with Erysiphe graminis; 0% in the data set with Phytophthora infestans. In addition, the pest or weed control at 100 ppm with Pyricularia oryzae was 90%; in data set [2] it was 90%; with Rhizoctonia solani, 0%. Further, at 100 µg/mL the inhibition of growth in the data set with Monilinia fructicola was 95%. The same compound showed a pest or weed control at 2 g/kg seed in the data set with Pythium aphanadermatum [1] of 0%. In the data set on 5 Phytophthora species, the “No. of 5 Phytophthora species controlled in vitro” value was determined as 0. In addition, the Phytotoxicity on bean entry with bean seedlings was “G”.
With `C[Si](C)(Cn1cncn1)c1ccc(Cl)cc1Cl` [(2,4-Dichlorophenyl)dimethyl(1H-1,2,4-triazol-1-ylmethyl)silane], the pest or weed control at 100 ppm in the data set with Helminthosporium maydis came to 90%; in the data set on Venturia inaequalis, 100%; with Cercospora arachidicola, 100%; in the data set on Erysiphe cichoracearum, 100%; in the data set with Erysiphe graminis it was 100%; with Phytophthora infestans, 0%. The pest or weed control at 100 ppm is 0% in the data set with Pyricularia oryzae, 90% in data set [2] and 0% in the data set on Rhizoctonia solani. For the same compound, the inhibition of growth – broadly, the share of the control response that was lost under treatment – at 100 µg/mL with Monilinia fructicola worked out at 100%. The compound also showed a pest or weed control at 2 g/kg seed in the data set with Pythium aphanadermatum [1] of 0%. Also, in the data set on 5 Phytophthora species, the “No. of 5 Phytophthora species controlled in vitro” value was 0. Besides, the Phytotoxicity on cucumber result in the data set with cucumber seedlings is “H”. The Phytotoxicity on bean entry with bean seedlings is “G”.
As to `C[Si](C)(Cn1cncn1)c1ccc(Cl)cc1` [(4-Chlorophenyl)dimethyl(1H-1,2,4-triazol-1-ylmethyl)silane], the pest or weed control at 100 ppm was found to be 0% in the data set with Helminthosporium maydis; 100% in the data set with Venturia inaequalis; 90% in the data set on Cercospora arachidicola; 100% in the data set with Erysiphe cichoracearum; 0% with Phytophthora infestans; 0% in the data set on Pyricularia oryzae. Further, the pest or weed control at 100 ppm in data set [2] was 100%. This compound also had a pest or weed control at 0.5 g/kg seed in the data set on Pythium aphanadermatum [1] (0.5 gm/kg seed) of 53%. For the same compound, the pest or weed control at 2 g/kg seed in the data set with Pythium aphanadermatum [3] amounted to 8%. The Phytotoxicity on corn result in the data set on corn seedlings was “G”.

(Values after patent US4510136A (priority 1983, dated 1985).)
